Assay results as given in article PMC8593400, “Effective Search of Triterpenes with Anti-HSV-1 Activity Using a Classification Model by Logistic Regression” (Frontiers in Chemistry, 2021).
Entries after “also recorded” stand apart in the source; their conditions may differ. Read-outs that look alike come from different tables or passages of the source.

Legend:
[1] = test system: HSV-1 (HF strain: acyclovir-sensitive); experiment: plaque reduction assay on Vero cells (anti-HSV-1 activity); type: cell-based, herpes simplex virus type 1; settings: for IC50: 50% inhibitory concentration, plaque reduction
Description: Antiviral effects against HSV-1 (HF strain: acyclovir-sensitive) were evaluated using a plaque reduction assay with some modifications as previously reported ([Ogawa et al., 2018]). The activity of all test compounds was measured at 25 μM, corresponding to the threshold of the prediction model. […] The protocol was performed follows.
Vero cells were maintained in Dulbecco’s Modified Eagle Medium (DMEM) supplemented with 10% fetal calf serum (FBS). Vero cells (1.7–2.8 × 10^5 cells/well) were seeded onto a 12-well tissue culture plate and precultured for 1–2 days. The cells were inoculated with 100 plaque-forming units (PFU) of HSV-1 in 0.1 ml of FBS-free DMEM. After 30 min, the inoculum was removed. HSV-infected cells were maintained in DMEM containing 10% FBS, methylcellulose, and serially diluted test compounds. After 48 h of incubation at 37°C, the medium was removed. The cell sheets were stained with 1% crystal violet dissolved in 50% methanol, and the number of plaques larger than 0.4 mm was counted. HSV-1 replication causes cytopathic effects, resulting in plaque formation. The number and size of plaques reflected virus yields. To examine the effect of virus yield reduction, the total plaque number in cells untreated with the compound was defined as 100% and set as the control group. The significant difference of test compounds at 25 μM from the control group was calculated using the Student’s t-test. The significant difference of each concentration of 10–13 and 16 from the control group was calculated by Dunnett’s test. Probability (p) values less than 0.05 were considered to be significant (^* p < 0.05, ^** p < 0.01).

[2] = cytotoxicity, CellTiter-Glo 3D cell viability assay; type: cell-based; settings: African green monkey
Description: (§1) All test compounds were evaluated their cytotoxicity by using CellTiter-Glo 3D® cell viability assay ([Matsumoto et al., 2020]). Briefly, Vero cells (3.0 × 10^3 cells/ well) were seeded in 96-well plates (96F Nunclon TM Delta Microwell SI; Thermo Fisher Scientific), and precultured for 24 h. The cells were treated with test compounds (10 μL/well). After 48 h, CellTiter-Glo® 3D Reagent (Promega, Madison, WI, United States) was added at 100 μL per well, mixed by shaking for 5 min at RT, and incubated for 25 min at 37°C. The cell-containing media were transferred to a 96-well white plate (96F Nunclon TM Delta White Microwell SI; Thermo Fisher Scientific). Luminescence was measured with a luminometer (FLUOstar OPTIMA®; BMG Labtech, Ortenberg, Germany).

HSV-1 = settings: cited from earlier work; for anti-HSV-1 activity previously reported: ref Rattanathongkom et al., 2009
Vero cells = experiment: cytotoxicity, CellTiter-Glo 3D cell viability assay; type: cell-based
Description: as §1

[3] = set-up: method as in Rattanathongkom et al., 2009; settings: ref Rattanathongkom et al., 2009; cited from earlier work
[4] = Human alphaherpesvirus 1, Vero, 48 h, 5 μM, plaque number vs untreated control, Vero cells, 48 h, read-out: Inhibitory rate (%) 5 μM
[5] = Human alphaherpesvirus 1, Vero, 48 h, 25 μM, plaque number vs untreated control, Vero cells, 48 h, read-out: Inhibitory rate (%) 25 μM
[6] = Human alphaherpesvirus 1, Vero, 48 h, read-out: Inhibitory rate (%) 25 μM, 25 μM, plaque number vs untreated control, Vero cells, 48 h
[7] = Human alphaherpesvirus 1, Vero, 48 h, 10 μM, plaque number vs untreated control, Vero cells, 48 h, read-out: Inhibitory rate (%) 10 μM
[8] = Human alphaherpesvirus 1, Vero, Vero cells, read-out: IC50

## CC1(C)CC[C@]2(C(=O)O)CC[C@]3(C)C(=CC[C@@H]4[C@@]5(C)CC[C@H](O)C(C)(C)[C@@H]5CC[C@]43C)[C@@H]2C1 [oleanolic acid, reference compound]
[1]; [4]
  inhibition at 5 µM: 9.02 ± 4.22%
[1]; [5]
  inhibition at 25 µM: 21.4 ± 11.6%

## C[C@@H](C1CC[C@@]2(C)C3=C(CC[C@]12C)[C@@]1(C)CC[C@H](O)C(C)(C)C1CC3)[C@H](O)/C=C/C(C)(C)OO (stereo partly drawn) [Compound 17, 3β,22R-Dihydroxylanosta-8,23E-diene-25-peroxide]
[2]; Cell viability (%)
  viability at 48 h, 25 µM: 16.8%

## CC(C)(O)CCC[C@](C)(O)[C@H]1CC[C@@]2(O)C3=CC(=O)[C@@H]4C[C@@H](O)[C@@H](O)C[C@]4(C)C3CC[C@]12C (some centres unmarked) [Compound 8, taxisterone]
[2]; Cell viability (%)
  viability at 48 h, 25 µM: 122 ± 4.78%

## CC(C)=CCC[C@@H](C)[C@H]1CC[C@@]2(C)C3=C(CC[C@]12C)[C@@]1(C)CC[C@H](O)C(C)(C)[C@@H]1CC3 [Compound 19, lanosterol]
[2]; Vero cells, 25 μM, Vero cells, 48 h, read-out: Cell viability (%)
  viability at 48 h, 25 µM: 101 ± 4.72%
[1]; [6]
  inhibition at 25 µM: 20.4 ± 8.49%

## C[C@]12C[C@H](O)[C@H](O)C[C@H]1C(=O)C=C1[C@@H]2CC[C@]2(C)[C@@H](O)CC[C@@]12O [Compound 9, 2β,3β,14α,17β-tetrahydroxy-5β-androst-7-en-6-one]
[2]; Cell viability (%)
  viability at 48 h, 25 µM: 106 ± 3.86%

## CC1(C)CC[C@]2(C(=O)O[C@@H]3O[C@H](CO)[C@@H](O)[C@H](O)[C@H]3O)CC[C@]3(C)C(=CC[C@@H]4[C@@]5(C)CC[C@H](O[C@@H]6O[C@H](C(=O)O)[C@@H](O)[C@H](O)[C@H]6O)C(C)(C)[C@@H]5CC[C@]43C)[C@@H]2C1 [Compound 11, chikusetsusaponin IVa]
[2]; Cell viability (%)
  viability at 48 h, 25 µM: 112 ± 4.45%
  viability at 48 h, 50 µM: 113 ± 6.08%
HSV-1
  anti-HSV-1 activity previously reported: exhibit anti-HSV-1 activity
[1]; 25 μM
  anti-HSV-1 activity in words (significance vs control): significant activity
[1]; 25 μM, plaque number vs untreated control, Vero cells, 48 h, 25 µM
  Inhibitory rate (%) 25 μM: 51.82 ± 9.61^** %
[1]; Vero cells
  IC50: 13.1 µM
[1]; Human alphaherpesvirus 1, Vero, Vero cells
  IC50: < 25 µM
[1]; Human alphaherpesvirus 1, Vero, 48 h, read-out: Inhibitory rate (%) 5 μM, 5 μM, plaque number vs untreated control, Vero cells, 48 h
  inhibition at 5 µM: 14.6 ± 15%
[1]; Human alphaherpesvirus 1, Vero, 48 h, read-out: Inhibitory rate (%) 10 μM, 10 μM, plaque number vs untreated control, Vero cells, 48 h
  inhibition at 10 µM: 36.8 ± 17.4%
[1]; [6]
  inhibition at 25 µM: 51.8 ± 9.61%

## C[C@@H]1CC[C@]2(C(=O)O)CC[C@]3(C)C(=CC[C@@H]4[C@@]5(C)C[C@@H](O)[C@@H](O)C(C)(C)[C@@H]5CC[C@]43C)[C@@H]2[C@]1(C)O [Compound 1, Euscaphic acid]
[2]; Cell viability (%)
  viability at 48 h, 25 µM: 117 ± 5.2%
[1]; [5]
  inhibition at 25 µM: 0%

## CC(C)C(C)CCC(C)C1CCC2C1(C)CCC1C23C=CC2(CC(O)CCC12C)OO3 (stereo not drawn) [Compound 16, 5α,8α-epidioxyergosta-3β-ol]
[2]; Cell viability (%)
  viability at 48 h, 25 µM: 130 ± 6.83%
  viability at 48 h, 50 µM: 2.96 ± 1.77%
[1]; 25 μM
  anti-HSV-1 activity in words (significance vs control): significant activity
[1]; [4]
  inhibition at 5 µM: -2.49 ± 8.74%
[1]; [7]
  inhibition at 10 µM: 0%
[1]; [5]
  inhibition at 25 µM: 27.2 ± 5.52%

## CC(C)[C@@H](O)C[C@@H](O)[C@](C)(O)[C@H]1CC[C@@]2(O)C3=CC(=O)[C@@H]4C[C@@H](O)[C@@H](O)C[C@]4(C)[C@H]3CC[C@]12C [Compound 7, pterosterone]
[2]; Cell viability (%)
  viability at 48 h, 25 µM: 115 ± 3.95%

## C=C1CCC2(C(=O)OC3OC(CO)C(O)C(O)C3O)CCC3(C)C(=CCC4C5(C)CCC(OC6OC(C(=O)O)C(O)C(O)C6O)C(C)(C)C5CCC43C)C2C1 (centres unmarked) [Compound 12, boussingoside A2]
Vero cells
  cytotoxicity in words: no cytotoxicity
[2]; Cell viability (%)
  viability at 48 h, 25 µM: 112 ± 6.79%
  viability at 48 h, 50 µM: 111 ± 9.73%
[1]; 25 μM
  anti-HSV-1 activity in words (significance vs control): significant activity; also recorded: moderate anti-HSV-1 activity
[1]; [4]
  inhibition at 5 µM: 4.42 ± 8.12%
[1]; [7]
  inhibition at 10 µM: 2.77 ± 11.6%
[1]; [5]
  inhibition at 25 µM: 24.7 ± 10.2%

## CC1(C)CCC2(C(=O)O)CCC3(C)C(=CCC4C5(C)CCC(OC6OC(C(=O)O)C(O)C(O)C6O)C(C)(C)C5CCC43C)C2C1 [Compound 10, oleanolic acid 3-O-β-D-glucuronopyranoside]
Vero cells
  cytotoxicity in words: showed cytotoxicity
Vero cells; African green monkey, 48 h, 10 µM
  Cell viability (%): 104.0 ± 9.28%
[2]; Cell viability (%)
  viability at 48 h, 10 µM: 104 ± 9.28%
  viability at 48 h, 25 µM: 14.6%
  viability at 48 h, 50 µM: 1.47 ± 0.54%
HSV-1
  anti-HSV-1 activity previously reported: did not show any anti-HSV-1 activity
[1]; 25 μM
  anti-HSV-1 activity in words (significance vs control): significant activity
[1]; Vero cells, read-out: IC50
  IC50: 14.1 µM
[1]; [8]
  IC50: < 25 µM
[1]; [4]
  inhibition at 5 µM: 5.85 ± 8.4%
[1]; [7]
  inhibition at 10 µM: 27.5 ± 8.92%
[1]; [5]
  inhibition at 25 µM: 83.3 ± 41.1%
[3]
  cytotoxicity previously reported: cytotoxicity

## C=C1CCC2(C(=O)O)C(O)CC3(C)C(=CCC4C5(C)CCC(OC6OC(C(=O)O)C(O)C(O)C6O)C(C)(C)C5CCC43C)C2C1 (centres unmarked) [Compound 4, Pfaffiaglycoside B]
[2]; Cell viability (%)
  viability at 48 h, 25 µM: 108 ± 4.17%
[1]; [5]
  inhibition at 25 µM: 7.64 ± 10.7%

## CC1(C)C(=O)CC[C@@]2(C)C1CC[C@]1(C)C2CC=C2[C@@H]3C[C@](C)(C(=O)O)CC[C@]3(C(=O)O)CC[C@]21C (stereo partly drawn) [Compound 5, (20α)-3-oxoolean-12-ene-28,29-dioic acid]
[2]; Cell viability (%)
  viability at 48 h, 25 µM: 122 ± 5.6%

## CC(C)=CCC[C@@H](C=O)[C@H]1CC[C@@]2(C)C3=C(CC[C@]12C)[C@@]1(C)CC[C@H](O)C(C)(C)[C@@H]1CC3 [Compound 18, 3β-hydroxylanosta-8,24-dien-21-al]
[2]; Cell viability (%)
  viability at 48 h, 25 µM: 113 ± 4.93%
[1]; [5]
  inhibition at 25 µM: 1.24 ± 3.8%

## cucurbitacin B [reference compound]
HSV-1; ref Hassan et al., 2017
  anti-HSV-1 activity: strong anti-HSV-1 activity
  selectivity index: high

## CC(C)(O)CCC(=O)[C@](C)(O)[C@H]1CC[C@@]2(O)C3=CC(=O)[C@@H]4C[C@@H](O)[C@@H](O)C[C@]4(C)C3CC[C@]12C (some centres unmarked) [Compound 15, 22-oxo-20-hydroxyecdysone]
[2]; Cell viability (%)
  viability at 48 h, 25 µM: 115 ± 3.93%

## C[C@H](C/C=C/C(C)(C)OO)C1CC[C@@]2(C)C3=C(CC[C@]12C)[C@@]1(C)CC[C@H](O)C(C)(C)C1CC3 (stereo partly drawn) [Compound 20, (3β,23E)-25-hydroperoxylanosta-8,23-dien-3-ol]
[1]; [5]
  inhibition at 25 µM: 19 ± 9.25%

## CC1(C)CC[C@]2(C(=O)O)CC[C@]3(C)C(=CCC4[C@@]5(C)C[C@H](O)[C@H](O)[C@@](C)(CO)C5CC[C@]43C)[C@@H]2C1 (some centres unmarked) [Compound 2, bayogenin]
[2]; Cell viability (%)
  viability at 48 h, 25 µM: 117 ± 6.99%

## C=C1CC[C@]2(C(=O)O)[C@@H](O)C[C@]3(C)C(=CC[C@@H]4[C@@]5(C)CC[C@H](O)C(C)(C)[C@@H]5CC[C@]43C)[C@@H]2C1 [Compound 6, pfaffianol A]
[2]; Cell viability (%)
  viability at 48 h, 25 µM: 122 ± 6.84%
[1]; [5]
  inhibition at 25 µM: 12.4 ± 16.9%

## Nc1nc2c(ncn2COCCO)c(=O)[nH]1 [acyclovir, reference compound]
[2]; Vero cells, 10 μM, Vero cells, 48 h, read-out: Cell viability (%)
  viability at 48 h, 10 µM: 103 ± 13.8%
[1]; [8]
  IC50: 3.08 µM
[1]; Human alphaherpesvirus 1, Vero, 48 h, 2.5 μM, plaque number vs untreated control, Vero cells, 48 h, read-out: Inhibitory rate (%) 2.5 μM
  inhibition at 2.5 µM: 57.5 ± 11.9%
[1]; [7]
  inhibition at 10 µM: 96 ± 11.8%
